Data as given in patent US5094723A, “Separation of m-xylene from p-xylene or o-xylene by extractive distillation with alcohols” (priority 1991, dated 1992).

Key:
Assay type in all cases: physicochemical
[1] = Relative volatility, separation of p-xylene from m-xylene, vapor-liquid equilibrium still; settings: for effectiveness in bringing m-xylene out as the overhead from p-xylene: alcohols; for Relative Volatility: vapor-liquid equilibrium still
Text: The data in Table 5 was obtained in a vapor-liquid equilibrium still.
Twenty grams of m-xylene, 60 grams of p-xylene, 30 grams of cyclododecanol and 15 grams of benzyl alcohol were charged to the vapor-liquid equilibrium still and refluxed for five hours.
Twenty grams of m-xylene, 60 grams of p-xylene, 30 grams of cyclododecanol and 15 grams of diisobutyl carbinol were charged to the vapor-liquid equilibrium still and refluxed for four hours.

[2] = Relative volatility, separation of m-xylene from o-xylene, vapor-liquid equilibrium still; settings: for effectiveness in separation of m-xylene from o-xylene: in words
Procedure: The data in Table 2 was obtained in a vapor-liquid equilibrium still.
Ten grams of m-xylene, 30 grams of o-xylene and 20 grams of cyclododecanol were charged to a vapor-liquid equilibrium still and refluxed for three hours.
Ten grams of m-xylene, 30 grams of o-xylene, 20 grams of cyclododecanol and ten grams of diisobutyl carbinol were charged to the vapor-liquid equilibrium still and refluxed for 14 hours.

[3] = Extractive distillation run in glass perforated plate rectification column, m-xylene from o-xylene; settings: for Relative Volatility: m-xylene from o-xylene, 7.3 theoretical plates, Fenske equation
Procedure: It yielded a relative volatility of 1.31 after one hour and 1.37 after two hours of continuous operation.
225 grams of m-xylene and 75 grams of o-xylene were placed in the stillpot of a glass perforated plate rectification column containing 7.3 theoretical plates, and heated. When refluxing began, an extractive agent comprising cyclododecanol was pumped into the column at a rate of 15 ml/min. The temperature of the extractive agent as it entered the column was 95° C. After establishing the feed rate of the extractive agent, the heat input to the column was adjusted to give a total reflux rate of 40 ml/min. After one hour of operation, overhead and bottoms samples of approximately two ml. were collected and analysed by gas chromatography. The overhead analysis was 95.5% m-xylene, 4.5% o-xylene and the bottoms analysis was 75% m-xylene, 25% o-xylene. Using these compositions in the Fenske equation, with the number of theoretical plates in the column being 7.3, gave an average relative volatility of 1.31 for each theoretical plate. After a total of two hours of continuous operation, samples of overhead and bottoms were again taken and analysed. The overhead analysis was 96.5% m-xylene, 3.5% o-xylene; the bottoms analysis was 73.6% m-xylene, 26.4% o-xylene which is a relative volatility of 1.37.

[4] = * brings the m-xylene out as overhead (m-xylene to p-xylene)
[5] = m-xylene to o-xylene, effective agents (alone or mixed as labelled), vapor-liquid equilibrium still
[6] = p-xylene from m-xylene, in words
[7] = m-xylene from o-xylene, ineffective agents when mixed with cyclododecanol

CCCCCCCCCCO [1-Decanol]
effectiveness in bringing m-xylene out as the overhead from p-xylene ([1]; in words): effective in bringing m-xylene out as the overhead
effectiveness in separation of m-xylene from o-xylene ([2]; alcohols): effective

CCCCCCCCCCCCO [1-Dodecanol]
Relative Volatility [1, 4]: 1.11
effectiveness in bringing m-xylene out as the overhead from p-xylene ([1]; in words): effective in bringing m-xylene out as the overhead
effectiveness in separation of m-xylene from o-xylene ([2]; alcohols): effective
Relative Volatility [2, 5]: 1.31

CCCCCCCCCO [1-Nonanol]
Relative Volatility [1, 4]: 1.14
effectiveness in bringing m-xylene out as the overhead from p-xylene ([1]; in words): effective in bringing m-xylene out as the overhead
effectiveness in separation of m-xylene from o-xylene ([2]; alcohols): effective

CCCCCCCCO [1-Octanol]
enhancement of relative volatility when mixed with cyclododecanol [1, 6]: enhance the relative volatility
effectiveness in separation of m-xylene from o-xylene ([2]; alcohols): effective
Relative Volatility [2, 5]: 1.38

CCCCC(CC)COC(C)=O (stereo not drawn) [2-Ethyl hexyl acetate]
Relative Volatility [2, 7]: 1.22

CCCCC(CC)CO (stereo not drawn) [2-Ethyl-1-hexanol]
Relative Volatility [2, 7]: 1.29

Cc1ccccc1[N+](=O)[O-] [2-Nitrotouene]
Relative Volatility [2, 7]: 1.25

CCCCCCC(C)O (stereo not drawn) [2-Octanol]
effectiveness in separation of m-xylene from o-xylene ([2]; alcohols): effective
Relative Volatility [2, 5]: 1.30

OCc1ccccc1 [Benzyl alcohol]
Relative Volatility [1, 4]: 1.19
effectiveness in bringing m-xylene out as the overhead from p-xylene ([1]; in words): effective in bringing m-xylene out as the overhead
enhancement of relative volatility when mixed with cyclododecanol [1, 6]: enhance the relative volatility

O=C(OCc1ccccc1)c1ccccc1 [Benzyl benzoate]
Relative Volatility [2, 7]: 1.0

CCCCOC(=O)CCC [Butyl butyrate]
Relative Volatility [2]: 1.26

OC1CCCCCCCCCCC1 [Cyclododecanol]
Weight % m-Xylene ([3]; bottoms, 1 hour): 75%
Weight % o-Xylene ([3]; bottoms, 1 hour): 25%
Weight % m-Xylene ([3]; bottoms, 2 hours): 73.6%
Weight % o-Xylene ([3]; bottoms, 2 hours): 26.4%
Relative Volatility ([3]; 1 hour): 1.31
Relative Volatility ([3]; 2 hours): 1.37
Weight % m-Xylene ([3]; overhead, 1 hour): 95.5%
Weight % o-Xylene ([3]; overhead, 1 hour): 4.5%
Weight % m-Xylene ([3]; overhead, 2 hours): 96.5%
Weight % o-Xylene ([3]; overhead, 2 hours): 3.5%
xylene brought out as overhead product [1, 6]: brings out the p-xylene as overhead product
Relative Volatility ([1]; p-xylene to m-xylene (no asterisk)): 1.11
effectiveness in separation of m-xylene from o-xylene ([2]; alcohols): effective
Relative Volatility [2, 5]: 1.37
liquid composition, m-xylene ([2]; vapor-liquid equilibrium still): 23.6%
liquid composition, o-xylene ([2]; vapor-liquid equilibrium still): 76.4%
vapor composition, m-xylene ([2]; vapor-liquid equilibrium still): 29.8%
vapor composition, o-xylene ([2]; vapor-liquid equilibrium still): 70.2%

CCOC(=O)CC(=O)OCC [Diethyl malonate]
Relative Volatility [2, 7]: 1.23

CCCCCCOCCOCCO [Diethylene glycol hexyl ether]
Relative Volatility [2, 7]: 0.7

CC(C)CC(O)CC(C)C [Diisobutyl carbinol]
Relative Volatility [1, 4]: 1.23
effectiveness in bringing m-xylene out as the overhead from p-xylene ([1]; in words): effective in bringing m-xylene out as the overhead
enhancement of relative volatility when mixed with cyclododecanol [1, 6]: enhance the relative volatility
effectiveness in separation of m-xylene from o-xylene ([2]; alcohols): effective
Relative Volatility [2, 5]: 1.27

CCCCOCCOC(C)=O [Ethylene glycol butyl ether acetate]
enhancement of relative volatility when mixed with cyclododecanol [1, 6]: enhance the relative volatility
Relative Volatility [2, 7]: 1.1

CC(C)CCCCCCCO [Isodecanol (ASHLAND), Isodecanol]
Relative Volatility [2, 5]: 1.27

CC(C)CCCCCCCO [Isodecanol (EXXON), Isodecanol]
Relative Volatility [2, 5]: 1.18

CC(C)CCCCCCCO [Isodecanol]
effectiveness in bringing m-xylene out as the overhead from p-xylene ([1]; in words): effective in bringing m-xylene out as the overhead
effectiveness in separation of m-xylene from o-xylene ([2]; alcohols): effective

CC(C)CCCCCCO [Isononyl alcohol (EXXON), Isononyl alcohol]
effectiveness in separation of m-xylene from o-xylene ([2]; alcohols): effective
Relative Volatility [2, 5]: 1.22

CC(C)CCCCCO [Isooctanol (U.C.), Isooctanol]
Relative Volatility [2, 5]: 1.27

COC(=O)c1ccccc1 [Methyl benzoate]
Relative Volatility [2, 7]: 1.0

OCCc1ccccc1 [Phenethyl alcohol]
enhancement of relative volatility when mixed with cyclododecanol [1, 6]: enhance the relative volatility
Relative Volatility [2, 7]: 1.29

CCC(=O)c1ccccc1 [Propiophenone]
enhancement of relative volatility when mixed with cyclododecanol [1, 6]: enhance the relative volatility
Relative Volatility [2, 7]: 0.8

CC1COC(=O)O1 (stereo not drawn) [Propylene carbonate]
Relative Volatility [2, 7]: 1.07

CCCCCCCCCCCO [Undecyl alcohol]
Relative Volatility [1, 4]: 1.14
effectiveness in bringing m-xylene out as the overhead from p-xylene ([1]; in words): effective in bringing m-xylene out as the overhead
effectiveness in separation of m-xylene from o-xylene ([2]; alcohols): effective
Relative Volatility [2, 5]: 1.40

CC(=O)c1ccccc1 [acetophenone]
effectiveness in separation of m-xylene from o-xylene ([2]; mixed with cyclododecanol): effective relative volatilities
effectiveness in separation of m-xylene from o-xylene ([2]; used alone): relatively ineffective

CCCCOCCOCCO [diethylene glycol butyl ether]
enhancement of relative volatility when mixed with cyclododecanol [1, 6]: enhance the relative volatility
effectiveness in separation of m-xylene from o-xylene ([2]; mixed with cyclododecanol): effective relative volatilities
effectiveness in separation of m-xylene from o-xylene ([2]; used alone): relatively ineffective

CCOCCOCCO [diethylene glycol ethyl ether]
effectiveness in separation of m-xylene from o-xylene ([2]; mixed with cyclododecanol): effective relative volatilities
effectiveness in separation of m-xylene from o-xylene ([2]; used alone): relatively ineffective

CN(C)C=O [dimethylformamide]
enhancement of relative volatility when mixed with cyclododecanol [1, 6]: enhance the relative volatility

C[S+](C)[O-] [dimethylsulfoxide]
enhancement of relative volatility when mixed with cyclododecanol [1, 6]: enhance the relative volatility
effectiveness in separation of m-xylene from o-xylene ([2]; mixed with cyclododecanol): effective relative volatilities
effectiveness in separation of m-xylene from o-xylene ([2]; used alone): relatively ineffective

CCOC(=O)c1ccccc1O [ethyl salicylate]
effectiveness in separation of m-xylene from o-xylene ([2]; mixed with cyclododecanol): effective relative volatilities
effectiveness in separation of m-xylene from o-xylene ([2]; used alone): relatively ineffective

CC(C)CCCCCO [isooctanol]
effectiveness in separation of m-xylene from o-xylene ([2]; alcohols): effective

COC(=O)c1ccccc1O [methyl salicylate]
effectiveness in separation of m-xylene from o-xylene ([2]; mixed with cyclododecanol): effective relative volatilities
effectiveness in separation of m-xylene from o-xylene ([2]; used alone): relatively ineffective

CC(=O)Oc1ccccc1 [phenyl acetate]
effectiveness in separation of m-xylene from o-xylene ([2]; mixed with cyclododecanol): effective relative volatilities
effectiveness in separation of m-xylene from o-xylene ([2]; used alone): relatively ineffective

O=S1(=O)CCCC1 [sulfolane]
effectiveness in separation of m-xylene from o-xylene ([2]; mixed with cyclododecanol): effective relative volatilities
effectiveness in separation of m-xylene from o-xylene ([2]; used alone): relatively ineffective

OCC1CCCO1 (stereo not drawn) [tetrahydrofurfuryl alcohol]
enhancement of relative volatility when mixed with cyclododecanol [1, 6]: enhance the relative volatility
